The results in this text go back to ChEMBL document CHEMBL1201862, “PubChem BioAssay data set” (2004).

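Following 48 hours of exposure in 96-well plates, responses at five concentrations were used to interpolate endpoints linearly. GI50 is the concentration that inhibits growth by half.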 The source made the active and inactive calls. No stated cut-off is given here; in the data, active = GI50 up to about 1.1 µM and inactive = higher. Residues, ends and D or L forms follow the SMILES beside them.

As usually defined, the GI50 is the concentration at which growth is held to half of that of the control.

Test systems include 786-0; EKVX; HCT-116; HCT-15; HOP-62; HOP-92; K562; M14; MDA-MB-231; MDA-N; NCI-H226; NCI-H460; NCI-H522; OVCAR-4; RXF 393; SNB-75; UACC-62; UO-31; SF-268; Hs-578T.
What all share (assay): DTP human tumour cell line panel, 48 h

As to `COc1cc(/C=C2\C(=O)N(c3ccc(NC(C)=O)cc3)C(c3ccccc3)S2(=O)=O)cc(OC)c1OC` (centres undefined), the GI50 is > 100 µM (inactive) with 786-0; 91.4 µM (inactive) in the assay with EKVX; > 100 µM (inactive) with HCT-116; > 100 µM in the assay on HCT-15; > 100 µM (inactive) in the assay on HOP-62; > 100 µM (inactive) in the assay with HOP-92. In addition, the GI50 with K562 is 39.9 µM (inactive); in the assay on M14, > 100 µM (inactive); in the assay with MDA-MB-231, > 100 µM (inactive); in the assay on MDA-N, 79.6 µM (inactive); with NCI-H226 it was > 100 µM (inactive); in the assay with NCI-H460 it was > 100 µM (inactive). The GI50 was > 100 µM (inactive) with NCI-H522; 60.8 µM (inactive) in the assay on OVCAR-4; > 100 µM (inactive) in the assay on RXF 393; 43.6 µM (inactive) in the assay on SNB-75; > 100 µM (inactive) in the assay on UACC-62; 66.5 µM (inactive) in the assay on UO-31.

As to `O=C1C2=Cc3ccccc3OC2(O)Oc2cc(O)ccc21` (centres undefined), the GI50 in the assay with 786-0 is > 100 µM (inactive); with EKVX it was > 100 µM (inactive); in the assay with HCT-116, > 100 µM (inactive); in the assay on HCT-15, 97.7 µM; in the assay with HOP-62 it was > 100 µM (inactive); in the assay with HOP-92, > 100 µM (inactive). Moreover, the GI50 in the assay with K562, in the assay with M14, in the assay with MDA-MB-231, in the assay with MDA-N, in the assay on NCI-H226 and in the assay with RXF 393 was > 100 µM (inactive) throughout. The GI50 in the assay with SF-268, with SNB-75 and in the assay on UACC-62 was > 100 µM (inactive) in each case.

Consider `CC(=O)NC(CO)C(=O)NC(Cc1ccc(O)cc1)C(=O)NCC(N)=O` (stereo not drawn) (Ac-Ser-Tyr-Gly-NH2; configuration not given here), for which the GI50 in the assay on 786-0 is > 100 µM (inactive); with EKVX it was > 100 µM (inactive); in the assay on HCT-116 it was > 100 µM (inactive); in the assay on HCT-15, > 100 µM; with HOP-62, > 100 µM (inactive); in the assay with HOP-92 it was > 100 µM (inactive). Further, the GI50 in the assay on K562, in the assay on M14, with MDA-MB-231, in the assay with MDA-N, in the assay with NCI-H226 and with NCI-H460 was > 100 µM (inactive) throughout. In addition, the GI50 was 74.5 µM (inactive) in the assay on NCI-H522; > 100 µM (inactive) in the assay on OVCAR-4; > 100 µM (inactive) in the assay on RXF 393; > 100 µM (inactive) in the assay on SF-268; > 100 µM (inactive) with SNB-75; > 100 µM (inactive) in the assay with UACC-62. The GI50 in the assay on UO-31 was > 100 µM (inactive).

For the molecule `Cc1ccc(Cl)c2[nH]c(-c3ccccc3)cc(=O)c12`, the GI50 in the assay with 786-0 was 90.4 µM (inactive); in the assay on EKVX, 6.41 µM (inactive); in the assay with HCT-116 it was 29.2 µM (inactive); with HCT-15, 39.2 µM; with HOP-62, 78.3 µM (inactive); in the assay on Hs-578T, 59.2 µM (inactive). Further, the GI50 in the assay with K562 was 30.1 µM (inactive); with M14, 39.8 µM (inactive); in the assay on MDA-MB-231, 38.9 µM (inactive); in the assay with MDA-N it was 22.3 µM (inactive); in the assay on NCI-H226 it was 31.3 µM (inactive); with NCI-H460, 37 µM (inactive). The GI50 in the assay on NCI-H522 is 57.1 µM (inactive); in the assay with OVCAR-4, 37.8 µM (inactive); with RXF 393, 44 µM (inactive); with SF-268 it was 14.8 µM (inactive); in the assay with SNB-75, 36.1 µM (inactive); with UACC-62, 48.2 µM (inactive).

For `CCOP(=O)(OCC)C1CC(O)C(=O)N1` (centres undefined), the GI50 in the assay on 786-0 was > 100 µM (inactive); in the assay with EKVX, > 100 µM (inactive); in the assay on HCT-116 it was > 100 µM (inactive); in the assay with HCT-15, > 100 µM; in the assay on HOP-62, > 100 µM (inactive); in the assay with Hs-578T, > 100 µM (inactive). The GI50 with K562, in the assay with M14, in the assay with MDA-MB-231, in the assay on MDA-N, with NCI-H226 and in the assay on OVCAR-4 was > 100 µM (inactive) each time. The GI50 in the assay on SF-268, with SNB-75, with UACC-62 and in the assay with UO-31 was > 100 µM (inactive) in each case.

For `CC(C)=C=CC(C)(C)NS(=O)(=O)NC(C)(C)C=C=C(C)C`, the GI50 with 786-0 is > 100 µM (inactive); with EKVX it was > 100 µM (inactive); with HCT-116, > 100 µM (inactive); in the assay on HCT-15, > 100 µM; in the assay on HOP-62, > 100 µM (inactive); in the assay on HOP-92 it was > 100 µM (inactive). Moreover, the GI50 in the assay with Hs-578T is > 100 µM (inactive); with K562, 19.8 µM (inactive); in the assay on M14 it was > 100 µM (inactive); with MDA-N it was > 100 µM (inactive); in the assay on NCI-H226, > 100 µM (inactive); in the assay on NCI-H460, 80.9 µM (inactive). Moreover, the GI50 in the assay on NCI-H522 is 56.6 µM (inactive); in the assay with OVCAR-4, > 100 µM (inactive); in the assay with SF-268, 89.3 µM (inactive); in the assay on SNB-75, 47.4 µM (inactive); in the assay with UACC-62 it was > 100 µM (inactive).

As to `CC(NC(=N)N)C(=O)O` (centres undefined), the GI50 in the assay on 786-0 was > 100 µM (inactive); in the assay with EKVX, > 100 µM (inactive); in the assay with HCT-116, > 100 µM (inactive); in the assay with HCT-15, > 100 µM; in the assay on HOP-62 it was > 100 µM (inactive); with Hs-578T, > 100 µM (inactive). Besides, the GI50 in the assay on K562, in the assay on M14, in the assay on MDA-MB-231, in the assay with MDA-N, with NCI-H226 and with NCI-H522 was > 100 µM (inactive) each time. Further, the GI50 in the assay with OVCAR-4, with RXF 393, with SF-268, in the assay with SNB-75, in the assay with UACC-62 and in the assay with UO-31 was > 100 µM (inactive) throughout.

With `Cc1ccc(C(=O)OC[C@H]2CC[C@@H](n3cc(N(C)C4CCCCC4)c(=O)[nH]c3=O)O2)cc1`, the GI50 with 786-0 was 28.1 µM (inactive); in the assay on EKVX, 38.9 µM (inactive); in the assay on HCT-116, 16.7 µM (inactive); with HCT-15 it was 24.5 µM; in the assay on HOP-62, 20.6 µM (inactive); with Hs-578T, 35.8 µM (inactive). Also, the GI50 in the assay with K562 is 38 µM (inactive); in the assay with M14, 11 µM (inactive); with MDA-MB-231, 14.9 µM (inactive); with MDA-N, 23.7 µM (inactive); in the assay on NCI-H226 it was 24.4 µM (inactive); in the assay on NCI-H460 it was 32.7 µM (inactive). Besides, the GI50 is 24.3 µM (inactive) with NCI-H522; 30.9 µM (inactive) with OVCAR-4; 16.7 µM (inactive) in the assay with RXF 393; 28 µM (inactive) with SF-268; 29.7 µM (inactive) in the assay on UACC-62; 13.9 µM (inactive) in the assay on UO-31.

Take `S=C(c1c[nH]c2ccccc12)N1CCN(c2ccccc2)CC1`: the GI50 was 46.9 µM (inactive) in the assay on 786-0; 19.4 µM (inactive) in the assay with EKVX; > 100 µM (inactive) with HCT-116; > 100 µM in the assay with HCT-15; 75.3 µM (inactive) in the assay with HOP-62; 1.06 µM (active) with Hs-578T. The GI50 was > 100 µM (inactive) with K562; > 100 µM (inactive) in the assay on M14; > 100 µM (inactive) in the assay with MDA-MB-231; > 100 µM (inactive) with MDA-N; 7.76 µM (inactive) with NCI-H226; > 100 µM (inactive) in the assay on NCI-H460. The GI50 with RXF 393 is > 100 µM (inactive); in the assay on SF-268 it was 19.8 µM (inactive); with SNB-75, 0.403 µM (active); in the assay with UACC-62, > 100 µM (inactive).

Turning to `N#CC1=C(N)N(c2ccccc2)C(c2ccccc2)C1(C#N)C#N` (centres undefined), the GI50 with 786-0 was 17.5 µM (inactive); with EKVX, 19.7 µM (inactive); in the assay with HCT-116, 14.5 µM (inactive); with HCT-15, 20.6 µM; in the assay with HOP-62 it was 18 µM (inactive); in the assay on Hs-578T, 30 µM (inactive). The GI50 with K562 is 6.05 µM (inactive); in the assay with M14, 21 µM (inactive); in the assay on MDA-MB-231, 14.3 µM (inactive); with MDA-N it was 19.3 µM (inactive); with NCI-H226, 17.7 µM (inactive); in the assay on NCI-H522 it was 16.3 µM (inactive). The GI50 in the assay with OVCAR-4 is 19.6 µM (inactive); in the assay on RXF 393 it was 15 µM (inactive); in the assay with SF-268, 22.6 µM (inactive); with SNB-75, 15.3 µM (inactive); in the assay on UACC-62 it was 18.2 µM (inactive); in the assay on UO-31, 18.1 µM (inactive).

Consider `CC(=O)OCC1=C(C)C(OC(=O)C(OC(C)=O)[C@@H](NC(=O)c2ccccc2)c2ccccc2)CCC1(C)C` (some centres undefined), for which the GI50 in the assay with 786-0 was > 100 µM (inactive); in the assay with EKVX, > 100 µM (inactive); in the assay on HCT-116, > 100 µM (inactive); in the assay with HCT-15, > 100 µM; in the assay with HOP-62 it was > 100 µM (inactive); in the assay with K562 it was > 100 µM (inactive). In addition, the GI50 in the assay with MDA-MB-231, with MDA-N, in the assay on NCI-H226, in the assay on NCI-H460, with OVCAR-4 and in the assay on RXF 393 was > 100 µM (inactive) each time. The GI50 was > 100 µM (inactive) with SF-268, 9.86 µM (inactive) in the assay on SNB-75, > 100 µM (inactive) with UACC-62 and > 100 µM (inactive) in the assay on UO-31.
